Results published in paper PMC7496931, “Activation of Sirtuin 2 Inhibitors Employing Photoswitchable Geometry and Aqueous Solubility” (Chemmedchem, 2020).

Biological target: T1, Sirt2 (Homo sapiens, UniProt Q8IXJ6)
T1 construct: Expression and purification of Sirt1_133−747, Sirt2_56−356, and Sirt3_118−395 was carried out as described previously; made in house
T1 sequence (Q8IXJ6 56-356): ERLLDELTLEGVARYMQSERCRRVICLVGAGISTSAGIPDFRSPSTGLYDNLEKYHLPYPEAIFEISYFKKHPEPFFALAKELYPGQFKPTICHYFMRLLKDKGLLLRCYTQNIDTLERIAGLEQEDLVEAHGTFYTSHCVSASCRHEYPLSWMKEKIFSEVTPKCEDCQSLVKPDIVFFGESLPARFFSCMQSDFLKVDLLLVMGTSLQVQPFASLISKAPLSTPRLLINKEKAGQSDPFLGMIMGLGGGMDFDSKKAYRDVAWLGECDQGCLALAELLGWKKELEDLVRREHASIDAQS
Assay: FP-based binding assay (competition with fluorescently labelled SirReal probe)
Design: key to Sirt2 inhibition FP-Assay (class): n.i. = no inhibition detected
Description: This conformational change is also observed upon binding of numerous other compounds as myristoylated substrates, for instance.23 A recently developed fluorescence polarization (FP)‐based binding assay was utilized to determine whether our compounds are able to prevent binding of a fluorescently labelled SirReal to the catalytic core of Sirt2.7 Serendipitously, competition with the fluorescent probe could be confirmed for 7 f (Table S3). […] Therefore, this scaffold seemed to be a promising structure for further derivatization. […]
yielding the percentage substrate conversion. Comparison of the determined substrate conversion with a no-inhibition DMSO control yields the percentage inhibition at the respective […]
For determination of IC50, inhibitory activity of the respective compound was determined at 8 to 10 distinct concentrations. The measured values were analysed by a non-linear fit to the dose-response curve using a four parameter logistic model (Figure S6):
Figure S6: Non-linear regression of the dose-response curves of compounds 15c and 15f at the thermal equilibrium (∆, black) and after 5 minutes of 365 nm irradiation (red). […]
before 5 µL of the solution of 21 (40 nM final assay concentration) were added. After further 30 min of incubation at 37 °C the fluorescence intensities were recorded with an EnVisionTM plate reader (PerkinElmer) with the following settings: optical module – BODIPY TMR FP, excitation filter – FP 531 nm, emission filter 1 – FP p-pol 595 nm, emission filter 2 – FP s-pol 595 nm. Fluorescence polarization (P) values were determined as […] (mP), […]
where Is/IP are the fluorescence intensities measured in the s- and the p-plane respectively, both blank corrected. […] Inhibition was calculated from fluorescence polarization in relation to the maximal polarization and minimal […]
Table S3: Compounds 7c, 7f and 9a examined in the FP-based binding assay and in the ZMAL activity assay. Inhibition of Sirt2 in the FP-based binding assay indicates displacement of the fluorescence-labelled SirReal probe and implies a similar binding mode. […]

NC(=O)c1cncc(/N=N/c2c(O)ccc3ccccc23)c1 [7 c]
Sirt2 inhibition FP-Assay (class): n.i.

Cc1cc(/N=N/c2cncc(C(N)=O)c2)cc(C)c1N [7 f]
inhibition at 10 µM (@ 10 µM, read-out: Sirt2 inhibition FP-Assay, % inhibition of binding of the fluorescent probe): 46%

CC(=O)Nc1c(C)cc(/N=N/c2cncc(C(N)=O)c2)cc1C [9 a]
inhibition at 100 µM (@ 100 µM, read-out: Sirt2 inhibition FP-Assay, % inhibition of binding of the fluorescent probe): 69%
